# Test results taken from patent publication US10709705B2, “Aminopyrimidines as ALK inhibitors” (THE REGENTS OF THE UNIVERSITY OF MICHIGAN, priority 2016, dated 2020).
# Legend:
# [1] = biological target: T1, wild-type human ALK protein (cytoplasmic domain, amino acid 1058-1620) (Homo sapiens, UniProt Q9UM73); experiment: Wild-type ALK kinase inhibition, Lance TR-FRET assay; type: biochemical; settings: Table 4; target not given; Cpd. No. 5 value equals WT ALK IC50 of Table 5; read-out: Inhibitory activity
# T1 construct: The cytoplasmic domain (amino acid 1058-1620) of wild-type human ALK protein; purchased Carna Biosciences, Inc (Japan)
# T1 sequence (Q9UM73 1058-1620): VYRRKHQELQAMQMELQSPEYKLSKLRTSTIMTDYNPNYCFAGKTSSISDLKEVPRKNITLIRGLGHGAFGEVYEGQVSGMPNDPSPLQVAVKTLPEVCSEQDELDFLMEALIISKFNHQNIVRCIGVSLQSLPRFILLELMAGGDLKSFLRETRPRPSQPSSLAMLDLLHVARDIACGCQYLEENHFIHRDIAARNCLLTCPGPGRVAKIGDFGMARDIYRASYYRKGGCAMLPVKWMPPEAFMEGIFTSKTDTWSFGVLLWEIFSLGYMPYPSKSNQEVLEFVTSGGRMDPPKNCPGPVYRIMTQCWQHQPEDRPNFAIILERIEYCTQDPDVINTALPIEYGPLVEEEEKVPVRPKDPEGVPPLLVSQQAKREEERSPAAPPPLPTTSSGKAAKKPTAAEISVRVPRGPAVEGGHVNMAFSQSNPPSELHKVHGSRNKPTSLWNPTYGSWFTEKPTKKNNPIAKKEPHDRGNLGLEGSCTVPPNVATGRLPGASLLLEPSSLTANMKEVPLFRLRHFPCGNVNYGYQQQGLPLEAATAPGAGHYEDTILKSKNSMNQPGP
# Experimental: The cytoplasmic domain (amino acid 1058-1620) of wild-type human ALK protein expressed as N-terminal GST-fusion protein was purchased from Carna Biosciences, Inc (Japan). Mutated ALK proteins were expressed in SF9 insect cells with N-terminal tags cleaved after purification. Kinase activities of all enzymes were assessed using a Lance® TR-FRET assay kit from Perkin Elmer Life Sciences (Waltham, Mass.). 2.5 μL of compound solution and 5 μL of protein solution were added into a black low volume 384 well microtiter plate which was incubated for 30 minutes with gentle shaking at room temperature, followed by adding 2.5 μL of fluorescently labeled peptide substrate (ULight™-IRS-1 (Tyr983) Peptide) and ATP mixture solution. The kinase reaction was performed in 50 mM HEPES (pH 7.5) with 1 mM EGTA, 1 mM MgCl2, and 2 mM DTT, 0.01% Tween-20 added right before the assay. Final concentrations of ATP, substrates, and DMSO were 100 μM, 20 nM, and 0.5%, respectively. […] Final ALK concentrations were 1 nM, 1 nM, InM, 128 nM, 2 nM, and 4 nM for wild-type, F1174L, L1196M, S1206Y, G1269A, and G1202R, respectively. The reaction was allowed to perform for 90 minutes in dark with gentle shaking at room temperature after which 10 μL of 20 mM EDTA and 2 nM Eu-W1024 anti-phosphotyrosine antibody (PT66) mixture solution in the detection buffer from the manufacturer was added to terminate the reaction and detect the phosphorylation of the peptide substrate. The final mixture was incubated in the dark for 1 hour before the plate was read on a Tecan Infinite M-1000 multi-mode plate reader (Tecan, Durham N.C.) with an excitation wavelength of 320 nm. Emission intensities were measured at both 620 and 665 nm with the intensity ratio between 665 and 620 nm corresponding to the peptide substrate phosphorylation. IC50 values of inhibitors were obtained by fitting the ratio of 665/620 nm vs inhibitor concentrations in a sigmoidal dose-response curve (variable slope) with a non-linear regression.
# H3122 cells (EML4-ALK) = experiment: Cell growth inhibition assay (WST-8), H3122; type: cell-based; settings: Homo sapiens, NCI-H3122, read-out: H3122 (nM) (EML4-ALK), 50% of cell growth inhibition (IC50), WST-8, versus DMSO control
# Experimental: (§1) H3122 and Kappas-299 cells were purchased from American Type Culture Collection (Manassas, Va., USA) and were used within 2 months after initiating from original stocks. All cell lines were cultured as recommended. For cell growth inhibition assay, cells were treated with different concentrations of the tested compounds, diluted from stock to culture media containing a 0.2% DMSO as the final concentration. Cell viability was determined using the WST-8 cell proliferation assay kit (Dojindo Molecular Technologies) according to manufacturer's instructions. Three independent experiments in triplicates were performed.
# [2] = test system: Kappas-299 cells (NPM-ALK); experiment: Cell growth inhibition assay (WST-8), Kappas-299; type: cell-based; settings: read-out: Kappas-299 (nM) (NPM-ALK), 50% of cell growth inhibition (IC50), WST-8, versus DMSO control
# Experimental: as §1
# [3] = Pharmacokinetics in SD rats; type: in vivo; settings: 10 mg/kg, Table 8 (SD rats), PO 10 mg/kg
# Experimental: Routine pharmacokinetics studies were performed for Cpd. No. 5 in SD rats and beagle dogs.
# [4] = test system: Human lymphoma cells, KARPAS 299 xenograft; experiment: KARPAS 299 xenograft tumor growth in SCID mice; type: in vivo; settings: given orally, once daily for 3 weeks, FIG. 1
# Experimental: Cpd. Nos. 5 and 6 were dissolved in a solution of 98% PEG200: 2% TPGS (Sigma).
# Human lymphoma cells, KARPAS 299 were maintained at 37° C., 95% air, 5% carbon dioxide in RPMI 1640 medium supplemented with 10% Fetal Bovine Serum, 100 units/ml of penicillin and 100 units/ml of streptomycin (GIBCO™, Invitrogen Corp.) and passaged twice weekly.
# Tumor cells for xenografts were washed twice in PBS, and re-suspended in an ice cold mixture of 1:1 PBS and Matrigel (BD Biosciences, Invitrogen Corp.) for a final Matrigel protein concentration of 5 mg/ml. Cells at 5×10^6 cells in 0.1 ml were injected subcutaneously (s.c.) into the flank region of each mouse. All tumors were inoculated into SCID mice (strain:236 C.B-17 SCID, Charles River).
# The size of tumors growing in the mice was measured in two dimensions using calipers. Tumor volume (mm^3)=(AxB^2)/2 where A and B are the tumor length and width (in mm), respectively. During treatment, tumor volume and body weight were measured three times a week. After the treatment was stopped, tumor volume and body weight was measured at least once a week.
# Tumors were not allowed to exceed 10% of the animal's total body weight. If an animal had two or more tumors the total weight of all tumors were not allowed to exceed 10% of the animal's total body weight. […]
SMILES,IC50 [1] [nM],IC50 (H3122 cells (EML4-ALK)) [nM],IC50 [2] [nM],also measured
"Cc1cc(Nc2ncc(Cl)c(Nc3ccccc3S(=O)(=O)C(C)C)n2)c(OC(C)C)cc1C1=C[C@H](C)N[C@H](C)C1 (racemic) [compound 9, 5-chloro-N2-(4-((cis)-2,6-dimethyl-1,2,3,6-tetrahydropyridin-4-yl)-2-isopropoxy-5-methylphenyl)-N4-(2-(isopropylsulfonyl)phenyl)pyrimidine-2,4-diamine]",1.1,54.9,35.9,
"Cc1cc(Nc2ncc(Cl)c(Nc3ccccc3S(=O)(=O)C(C)C)n2)c(OC(C)C)cc1C1=C[C@H](C)N(C)[C@H](C)C1 (racemic) [compound 10, 5-chloro-N2-(2-isopropoxy-5-methyl-4-((cis)-1,2,6-trimethyl-1,2,3,6-tetrahydropyridin-4-yl)phenyl)-N4-(2-(isopropylsulfonyl)phenyl)pyrimidine-2,4-diamine]",0.98,54.9,37.5,
"Cc1cc(Nc2ncc(Cl)c(Nc3ccccc3S(=O)(=O)C(C)C)n2)c(OC(C)C)cc1C1=CCN(C2CCOCC2)CC1 [Cpd. No. 5 (mesylate), 5-chloro-N2-(2-isopropoxy-5-methyl-4-(1-(tetrahydro-2H-pyran-4-yl)-1,2,3,6-tetrahydropyridin-4-yl)phenyl)-N4-(2-(isopropylsulfonyl)phenyl)pyrimidine-2,4-diamine]",,,,"half-life ([3]; Sprague-Dawley, rat, in vivo, po, read-out: t1/2 (h) PO (converted)): 3.84 h; AUC0-t (ng · h/mL) PO [3]: 958 ng·h/mL; AUC0-∞ (ng · h/mL) PO [3]: 971 ng·h/mL; Cmax(ng/mL) PO [3]: 127 ng/mL; Tmax (h) PO [3]: 1.0 h"
"Cc1cc(Nc2ncc(Cl)c(Nc3ccccc3S(=O)(=O)C(C)C)n2)c(OC(C)C)cc1C1=CC(C)(C)N(C)C(C)(C)C1 [compound 1, 5-chloro-N2-(2-isopropoxy-5-methyl-4-(1,2,2,6,6-pentamethyl-1,2,3,6-tetrahydropyridin-4-yl)phenyl)-N4-(2-(isopropylsulfonyl)phenyl)pyrimidine-2,4-diamine]",1.8,92,30,
"Cc1cc(Nc2ncc(Cl)c(Nc3ccccc3S(=O)(=O)C(C)C)n2)c(OC(C)C)cc1C1=CC(C)(C)NC(C)(C)C1 [compound 2, 5-chloro-N2-(2-isopropoxy-5-methyl-4-(2,2,6,6-tetramethyl-1,2,3,6-tetrahydropyridin-4-yl)phenyl)-N4-(2-(isopropylsulfonyl)phenyl)pyrimidine-2,4-diamine]",4.4,132,39,
"Cc1cc(Nc2ncc(Cl)c(Nc3ccccc3S(=O)(=O)C(C)C)n2)c(OC(C)C)cc1C1=CCN(C2COC2)CC1 [compound 6, 5-chloro-N2-(2-isopropoxy-5-methyl-4-(1-(oxetan-3-yl)-1,2,3,6-tetrahydropyridin-4-yl)phenyl)-N4-(2-(isopropylsulfonyl)phenyl)pyrimidine-2,4-diamine]",,,,tumor growth in the KARPAS 299 xenograph model [4]: inhibit tumor growth

# Continued, in another order:
IC50 [1] [nM],IC50 (H3122 cells (EML4-ALK)) [nM],SMILES,IC50 [2] [nM],also measured
6.6,196,"Cc1cc(Nc2ncc(Cl)c(Nc3ccccc3S(=O)(=O)C(C)C)n2)c(OC(C)C)cc1C1=C[C@H](C2CC2)N[C@H](C2CC2)C1 (racemic) [compound 15, 5-chloro-N2-(4-((cis)-2,6-dicyclopropyl-1,2,3,6-tetrahydropyridin-4-yl)-2-isopropoxy-5-methylphenyl)-N4-(2-(isopropylsulfonyl)phenyl)pyrimidine-2,4-diamine]",121,
6.3,160,"Cc1cc(Nc2ncc(Cl)c(Nc3ccccc3S(=O)(=O)C(C)C)n2)c(OC(C)C)cc1C1=C[C@H](C2CC2)N(C)[C@H](C2CC2)C1 (racemic) [compound 16, 5-chloro-N2-(4-((cis)-2,6-dicyclopropyl-1-methyl-1,2,3,6-tetrahydropyridin-4-yl)-2-isopropoxy-5-methylphenyl)-N4-(2-(isopropylsulfonyl)phenyl)pyrimidine-2,4-diamine]",97.7,
